In patent publication US9181239B2, “Pyridopyrimidinone inhibitors of kinases” (AbbVie Inc., priority 2011, dated 2015) one finds Ki data, which are given here for 29 compounds.

The Ki is a dissociation constant, usually derived from enzyme kinetics or from competition with a known ligand.

The target in the experiment is T1, Wee1 kinase (Homo sapiens, UniProt P30291).
T1 construct: purchased Carnabio 05-177
T1 sequence (P30291 whole entry): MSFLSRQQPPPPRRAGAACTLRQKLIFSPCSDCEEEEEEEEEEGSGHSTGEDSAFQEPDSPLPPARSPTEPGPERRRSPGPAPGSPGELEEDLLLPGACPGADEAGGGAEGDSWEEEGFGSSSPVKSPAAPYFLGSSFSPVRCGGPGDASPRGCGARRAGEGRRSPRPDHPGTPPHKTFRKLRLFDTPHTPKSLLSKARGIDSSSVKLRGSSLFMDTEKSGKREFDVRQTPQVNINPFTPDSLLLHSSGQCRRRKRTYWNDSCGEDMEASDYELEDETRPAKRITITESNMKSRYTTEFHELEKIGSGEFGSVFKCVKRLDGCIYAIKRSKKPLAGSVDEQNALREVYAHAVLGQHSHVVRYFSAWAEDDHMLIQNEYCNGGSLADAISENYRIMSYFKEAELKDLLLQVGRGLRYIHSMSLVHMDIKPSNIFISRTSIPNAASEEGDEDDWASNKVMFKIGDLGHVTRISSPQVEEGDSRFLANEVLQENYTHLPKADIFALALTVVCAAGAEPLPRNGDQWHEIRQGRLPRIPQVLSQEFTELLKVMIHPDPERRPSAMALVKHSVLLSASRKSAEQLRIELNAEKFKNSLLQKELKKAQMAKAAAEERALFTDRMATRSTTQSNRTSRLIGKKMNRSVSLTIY
As to the kind of experiment: Wee1 time-resolved fluorescence equilibrium binding assay (probe displacement). Particulars: GST-tagged-Wee1 kinase 2 nM, fluorescent probe 300 nM, 1 hour incubation; read-out: Wee-1 binding (Ki nM). Here is the method:
Wee1 kinase was assayed using a time-resolved fluorescence equilibrium binding assay monitoring displacement of a rapidly reversible Oregon Green-labeled ATP-competitive kinase probe (N-(2-(2-(2-(4-(4-(5-chloro-4-(2-(1-hydroxycyclobutyl)thiazol-5-yl)-1H-pyrrolo[2,3-b]pyridin-2-yl)phenyl)piperazin-1-yl)ethoxy)ethoxy)ethyl)-2′,7′-difluoro-3′,6′-dihydroxy-3-oxo-3H-spiro[isobenzofuran-1,9′-xanthene]-5-carboxamide) by competitive Wee1 inhibitors.
For the compound `CN1Cc2cc(Nc3ncc4c(=O)c(-c5c(Cl)cccc5Cl)cn(C5CC5)c4n3)ccc2C2(CC2)C1` [Example 17, 8-cyclopropyl-6-(2,6-dichlorophenyl)-2-[(2′-methyl-2′,3′-dihydro-1′H-spiro[cyclopropane-1,4′-isoquinolin]-7′-yl)amino]pyrido[2,3-d]pyrimidin-5(8H)-one], the Ki was determined as 0.2 nM.

Turning to `CN1CCN(c2ccc(Nc3ncc4c(=O)c(-c5c(Cl)cccc5Cl)cn(C)c4n3)cc2)CC1` [Example 8, 6-(2,6-dichlorophenyl)-8-methyl-2-{[4-(4-methylpiperazin-1-yl)phenyl]amino}pyrido[2,3-d]pyrimidin-5(8H)-one], the Ki is 0.3 nM.

For `CN1CCN(c2ccc(Nc3ncc4c(=O)c(-c5c(Cl)cccc5Cl)cn(-c5ccc(F)cc5)c4n3)cc2)CC1` [Example 9, 6-(2,6-dichlorophenyl)-8-(4-fluorophenyl)-2-{[4-(4-methylpiperazin-1-yl)phenyl]amino}pyrido[2,3-d]pyrimidin-5(8H)-one], the Ki is below 1 nM.

In the case of `CN1CCN(c2ncc(Nc3ncc4c(=O)c(-c5c(Cl)cccc5Cl)cn(C)c4n3)cn2)CC1` [Example 59, 6-(2,6-dichlorophenyl)-8-methyl-2-{[2-(4-methylpiperazin-1-yl)pyrimidin-5-yl]amino}pyrido[2,3-d]pyrimidin-5(8H)-one], the inhibition constant Ki amounted to 18 nM.

Turning to `COc1ccc(Cn2cc(-c3c(Cl)cccc3Cl)c(=O)c3cnc(Nc4ccc5c(c4)CN(C)CC54CC4)nc32)cc1` [Example 29, 6-(2,6-dichlorophenyl)-8-(4-methoxybenzyl)-2-[(2′-methyl-2′,3′-dihydro-1′H-spiro[cyclopropane-1,4′-isoquinolin]-7′-yl)amino]pyrido[2,3-d]pyrimidin-5(8H)-one], the Ki was 6.4 nM.

As for `Cn1cc(-c2c(Cl)cccc2Cl)c(=O)c2cnc(Nc3ccc4c(c3)C(=O)NC4=O)nc21` [Example 56, 5-{[6-(2,6-dichlorophenyl)-8-methyl-5-oxo-5,8-dihydropyrido[2,3-d]pyrimidin-2-yl]amino}-1H-isoindole-1,3(2H)-dione], the inhibition constant (Ki) came out at 27 nM.

Turning to `CN(C)C1CCN(c2ncc(Nc3ncc4c(=O)c(-c5c(Cl)cccc5Cl)cn(C)c4n3)cn2)CC1` [Example 62, 6-(2,6-dichlorophenyl)-2-({2-[4-(dimethylamino)piperidin-1-yl]pyrimidin-5-yl}amino)-8-methylpyrido[2,3-d]pyrimidin-5(8H)-one], the inhibitory constant (Ki) worked out at 3 nM.

Consider `CN1CCN(c2ccc(Nc3ncc4c(=O)c(-c5c(Cl)cccc5Cl)cn(C5CC5)c4n3)cc2)CC1` [Example 10, 8-cyclopropyl-6-(2,6-dichlorophenyl)-2-{[4-(4-methylpiperazin-1-yl)phenyl]amino}pyrido[2,3-d]pyrimidin-5(8H)-one], for which the Ki is below 1 nM.

As for `CN1CCC(Nc2ccc(Nc3ncc4c(=O)c(-c5c(Cl)cccc5Cl)cn(C)c4n3)cc2)CC1` [Example 61, 6-(2,6-dichlorophenyl)-8-methyl-2-({4-[(1-methylpiperidin-4-yl)amino]phenyl}amino)pyrido[2,3-d]pyrimidin-5(8H)-one], the inhibition constant Ki amounted to 0.6 nM.

For the compound `Cn1cc(-c2c(Cl)cccc2Cl)c(=O)c2cnc(Nc3cc4c(s3)CCNC4)nc21` [Example 58, 6-(2,6-dichlorophenyl)-8-methyl-2-(4,5,6,7-tetrahydrothieno[3,2-c]pyridin-2-ylamino)pyrido[2,3-d]pyrimidin-5(8H)-one], the Ki came to 0.4 nM.

For the compound `Cn1cc(-c2c(Cl)cccc2Cl)c(=O)c2cnc(Nc3ccc(N[C@H]4CC[C@@H](N(C)C)CC4)cc3)nc21` [Example 77, 6-(2,6-dichlorophenyl)-2-[(4-{[cis-4-(dimethylamino)cyclohexyl]amino}phenyl)amino]-8-methylpyrido[2,3-d]pyrimidin-5(8H)-one], the inhibition constant Ki stood at 0.5 nM.

Take `CN1Cc2cc(Nc3ncc4c(=O)c(-c5c(Cl)cccc5Cl)c[nH]c4n3)ccc2C2(CC2)C1` [Example 30, 6-(2,6-dichlorophenyl)-2-[(2′-methyl-2′,3′-dihydro-1′H-spiro[cyclopropane-1,4′-isoquinolin]-7′-yl)amino]pyrido[2,3-d]pyrimidin-5(8H)-one]: the inhibitory constant (Ki) was determined as 0.2 nM.

For `CN1CCN(c2ccc(Nc3ncc4c(=O)c(-c5c(Cl)cccc5Cl)c[nH]c4n3)cc2)CC1` [Example 18, 6-(2,6-dichlorophenyl)-2-{[4-(4-methylpiperazin-1-yl)phenyl]amino}pyrido[2,3-d]pyrimidin-5(8H)-one], the Ki amounted to 0.3 nM.

On to `CN(C)C1CCN(C2Cc3ccc(Nc4ncc5c(=O)c(-c6c(Cl)cccc6Cl)cn(C)c5n4)cc3C2)CC1` (centres unmarked) [Example 72, 6-(2,6-dichlorophenyl)-2-({2-[4-(dimethylamino)piperidin-1-yl]-2,3-dihydro-1H-inden-5-yl}amino)-8-methylpyrido[2,3-d]pyrimidin-5(8H)-one], for which the inhibitory constant (Ki) worked out at 0.5 nM.

Take `CN1CCc2ccc(Nc3ncc4c(=O)c(-c5c(Cl)cccc5Cl)cn(C)c4n3)cc2C1` [Example 52, 6-(2,6-dichlorophenyl)-8-methyl-2-[(2-methyl-1,2,3,4-tetrahydroisoquinolin-7-yl)amino]pyrido[2,3-d]pyrimidin-5(8H)-one]: the inhibitory constant (Ki) is 0.5 nM.

Take `COc1ccc(Cn2cc(-c3c(F)cccc3Cl)c(=O)c3cnc(Nc4ccc(N5CCN(C)CC5)cc4)nc32)cc1` [Example 35, 6-(2-chloro-6-fluorophenyl)-8-(4-methoxybenzyl)-2-{[4-(4-methylpiperazin-1-yl)phenyl]amino}pyrido[2,3-d]pyrimidin-5(8H)-one]: the Ki was 66 nM.

With `CN1CCN(c2ccc(Nc3ncc4c(=O)c(-c5ccccc5Cl)c(-c5ccccc5)[nH]c4n3)cc2)CC1` [Example 3, 6-(2-chlorophenyl)-2-{[4-(4-methylpiperazin-1-yl)phenyl]amino}-7-phenylpyrido[2,3-d]pyrimidin-5(8H)-one], the inhibition constant (Ki) turned out to be 37 nM.

On to `Cn1cc(-c2c(F)cccc2Cl)c(=O)c2cnc(Nc3ccc4c(c3)CCNC4)nc21` [Example 75, 6-(2-chloro-6-fluorophenyl)-8-methyl-2-(1,2,3,4-tetrahydroisoquinolin-6-ylamino)pyrido[2,3-d]pyrimidin-5(8H)-one], for which the Ki was 1.3 nM.

`CN1CCN(c2ccc(Nc3ncc4c(=O)c(-c5ccccc5Cl)cn(-c5ccccc5)c4n3)cc2)CC1` [Example 2, 6-(2-chlorophenyl)-2-{[4-(4-methylpiperazin-1-yl)phenyl]amino}-8-phenylpyrido[2,3-d]pyrimidin-5(8H)-one]: the inhibitory constant (Ki) turned out to be 2.4 nM.

As for `CN1CCN(c2ccc(Nc3ncc4c(=O)c(-c5ccccc5Cl)c[nH]c4n3)cc2)CC1` [Example 1, 6-(2-chlorophenyl)-2-{[4-(4-methylpiperazin-1-yl)phenyl]amino}pyrido[2,3-d]pyrimidin-5(8H)-one], the Ki is 9.5 nM.

`CN1Cc2cc(Nc3ncc4c(=O)c(-c5c(F)cccc5Cl)cn(C5CC5)c4n3)ccc2C2(CC2)C1` [Example 38, 6-(2-chloro-6-fluorophenyl)-8-cyclopropyl-2-[(2′-methyl-2′,3′-dihydro-1′H-spiro[cyclopropane-1,4′-isoquinolin]-7′-yl)amino]pyrido[2,3-d]pyrimidin-5(8H)-one]: the Ki came to 1.3 nM.

Consider `CN1Cc2cc(Nc3ncc4c(=O)c(-c5c(Cl)cccc5Cl)cn(C)c4n3)ccc2C2(CC2)C1` [Example 14, 6-(2,6-dichlorophenyl)-8-methyl-2-[(2′-methyl-2′,3′-dihydro-1′H-spiro[cyclopropane-1,4′-isoquinolin]-7′-yl)amino]pyrido[2,3-d]pyrimidin-5(8H)-one], for which the inhibition constant Ki worked out at 0.3 nM.

As for `CN1CCN(c2ccc(Nc3ncc4c(=O)c(-c5c(Cl)cccc5Cl)cn(C5COC5)c4n3)cc2)CC1` [Example 27, 6-(2,6-dichlorophenyl)-2-{[4-(4-methylpiperazin-1-yl)phenyl]amino}-8-(oxetan-3-yl)pyrido[2,3-d]pyrimidin-5(8H)-one], the Ki amounted to 1.3 nM.

`CN1CCN(c2ccc(Nc3ncc4c(=O)c(-c5c(F)cccc5Cl)c[nH]c4n3)cc2)CC1` [Example 40, 6-(2-chloro-6-fluorophenyl)-2-{[4-(4-methylpiperazin-1-yl)phenyl]amino}pyrido[2,3-d]pyrimidin-5(8H)-one]: the inhibition constant (Ki) worked out at 2.4 nM.

Turning to `CN1CCN(c2ccc(Nc3ncc4c(=O)c(-c5c(F)cccc5Cl)cn(C5CC5)c4n3)cc2)CC1` [Example 37, 6-(2-chloro-6-fluorophenyl)-8-cyclopropyl-2-{[4-(4-methylpiperazin-1-yl)phenyl]amino}pyrido[2,3-d]pyrimidin-5(8H)-one], the inhibition constant Ki worked out at 2.4 nM.

For the compound `CN(C)CCN1CCN(c2ccc(Nc3ncc4c(=O)c(-c5c(Cl)cccc5Cl)cn(C)c4n3)cc2)CC1` [Example 79, 6-(2,6-dichlorophenyl)-2-[(4-{4-[2-(dimethylamino)ethyl]piperazin-1-yl}phenyl)amino]-8-methylpyrido[2,3-d]pyrimidin-5(8H)-one], the inhibition constant Ki was found to be 0.8 nM.

In the case of `Cn1cc(-c2c(F)cccc2Cl)c(=O)c2cnc(Nc3ccc4c(c3)CNCC4)nc21` [Example 74, 6-(2-chloro-6-fluorophenyl)-8-methyl-2-(1,2,3,4-tetrahydroisoquinolin-7-ylamino)pyrido[2,3-d]pyrimidin-5(8H)-one], the Ki amounted to 1.2 nM.

Turning to `CN1CCC(Nc2ccc(Nc3ncc4c(=O)c(-c5c(Cl)cccc5Cl)cn(C)c4n3)cc2)C1` (centres unmarked) [Example 67, 6-(2,6-dichlorophenyl)-8-methyl-2-({4-[(1-methylpyrrolidin-3-yl)amino]phenyl}amino)pyrido[2,3-d]pyrimidin-5(8H)-one], the inhibition constant Ki came to 0.5 nM.

Turning to `COC(=O)c1cc(Nc2ncc3c(=O)c(-c4c(Cl)cccc4Cl)cn(C)c3n2)ccc1N1CCN(C)CC1` [Example 71, methyl 5-{[6-(2,6-dichlorophenyl)-8-methyl-5-oxo-5,8-dihydropyrido[2,3-d]pyrimidin-2-yl]amino}-2-(4-methylpiperazin-1-yl)benzoate], the Ki turned out to be 0.7 nM.
